In patent publication US7635722B1, “Chemical induced intracellular hyperthermia” (priority 1998, dated 2009):
Where two headings read alike, the source gives them in different places.

Columns and labels:
Normal rat liver = assay: reactive oxygen species formation in rat liver infused with DNP; settings: upon cessation of uncoupling (FIG. 9)
musculocutaneous flap = musculocutaneous flap skin survival after DNP; type: in vivo; settings: after induction of heat shock proteins by DNP (FIG. 23)
From the text: (§1) This method of DNP induced preconditioning could be used to decrease intimal thickening and restenosis after angioplasty, improve ischemia/reperfusion injury in organ and tissue transplantation, and improve surgical outcome of procedures that require temporary or prolonged occlusion of arterial blood flow.

[1] = test system: arterial catheter balloon injury; assay: arterial catheter balloon injury after DNP pretreatment; type: in vivo, Sprague-Dawley rats; settings: rats pretreated with DNP induced hyperthermia (FIG. 21)
From the text: as §1

[2] = type: in vivo, human
Description: Placement of physiologic monitoring sensors, intravenous fluids, supplemental oxygen (4 l/min) and optional oral diazepam sedation (5-10 mg) is initiated prior to treatment. Patients receive 0.85 to 1.0 liter of intravenous (IV) 5% dextrose in 0.25 normal saline per hour alternated with 5% dextrose in 0.5 normal saline plus 7.5 to 10 meq of KCl per liter to insure a urinary output of no less than 1 ml/kg/hr. […] Two hours after treatment and 48 hours post-treatment, serum chemistries and hematologic profiles are repeated. A typical patient flow chart is depicted in FIG. 14.
Pretreatment protocol: the patient was given 10 mg diazepam by mouth and dressed into a modified wet suit. The wet suit was cut lengthwise at the arms and legs. Velcro strappings were attached at the cuttings for closure, rapid removal or exposure of the limb(s). After placement of monitoring sensors, they were started on IV fluids of 5% dextrose, 0.5 normal saline with 7 meq K^+, infused at an initial rate of 12 cc/kg/hr. Evaporative heat loss from the head was minimized by a plastic shower cap and towels. A 401AC temperature probe (YSI Incorporated, Yellow Springs, Ohio) was inserted 11 cm. into the rectum. […] A TEEM 100 Metabolic Analysis System (AeroSport Inc., Ann Arbor, Mich.), with a modified face mask and oxygen delivery system (38-40% 02 saturation) for patient comfort and increased accuracy, was attached to the patient. Oxygen consumption (V02), carbon dioxide production (VC02), expired air volume (VE), heart rate (HR), and Kcal of heat produced were measured in 20 second intervals and extrapolated to minute or hourly rates.
Pretreatment protocol: all medications were stopped 2 weeks prior to treatment. The patient refused taking diazepam, placement of a Foley catheter and oxygen face mask. They dressed themself into a dry cold water immersion suit (Stearns, ISS-590I, Universal Adult) designed to prevent heat loss and modified for easy placement of physiologic monitors. Equipment for measurement of heart rate, temperature, carbon dioxide production and Kcal of heat produced were conducted as outlined in Example 1. An oral breathing tube was used to measure V02 from room air. Urine output was measured when the patient voluntarily urinated through a “Texas” catheter (superficial condom tightly fitted around the head of the penis with tubing connected to urine collection bag). The patient was informed that hyperthermia would be administered as tolerated by their stamina and monitored clinical parameters, not to exceed 5 hours, on a daily or every other day basis, for a total of 5 sessions.
Pretreatment protocol: the evening prior treatment the patient was instructed not to eat and dress in cotton undergarments. Approximately 4 hours prior to treatment 2 mg alprazolam was administered by mouth. The patient dressed themself into a dry cold water immersion suit (Stearns, previously described) with headgear. Monitoring sensors, including EKG display, IV fluids and Foley catheter were attached and the suit was zipped closed. The patient opted for oxygen supplementation. The modified face mask was connected to the TEEM 100 metabolic Analysis System for V02 measurements. Data was recorded as previously described.
Pretreatment protocol: the patient was transfused with three units of packed red blood cells. A Foley catheter was inserted on each day of treatment. They were covered in a water soaked blanket containing a polyethylene lining. A shower cap with towels was used to prevent heat loss from the head. Intravenous lines were placed into both arms with 19 gauge intracaths. EKG, heart rate, rectal thermistor, and V02 monitors were attached. Oxygen supplemented facemask and equipment was attached and data monitored as previously described under Example 1.
Pretreatment protocol: the patient was transfused with 2 units of packed red blood cells 48 hours prior to undergoing treatment. Intravenous fluids (Lactated Ringer's solution) were administered at a rate of 100 cc/hour. […]

[3] = Example 3, peak after second dose of 2.0 mg/kg DNP
[4] = Example 3, stable plateau after additional 1.0 mg/kg DNP
[5] = Example 4, DNP 1 mg/kg + 3 x 0.5 mg/kg after mephenteramine

## O=[N+]([O-])c1ccc(O)c([N+](=O)[O-])c1 [DNP, 2,4-dinitrophenol]
Normal rat liver
  formation of reactive oxygen species: threefold
Musculocutaneous flap
  musculocutaneous flap skin survival: improved musculocutaneous flap skin survival
[1]
  proliferative arterial catheter balloon injury: limitation of proliferative arterial catheter balloon injury
[2]; Example 1, DNP 1 + 3 mg/kg IV plus glucagon, maintained about 1 hour
  rectal body temperature: 40 °C
[2]; Example 1, DNP with glucagon
  post-treatment toxicity: No immediate or delayed post-treatment toxicity
[2]; Example 1, stabilized after initial 1 mg/kg DNP IV
  V02 above baseline: 40%
[2]; Example 2, 15 minutes after initial 2 mg/kg DNP, baseline 300 cc/min
  V02: 340-380 cc/min
[2]; Example 2, after additional 2 mg/kg DNP infusion
  V02: 610-630 cc/min
[2]; Example 2, gradual fall noted at 90 minutes
  blood pressure: 100/60
[2]; Example 2, on days of treatment
  repeat blood work: no significant hematologic, electrolyte, liver or kidney changes from baseline
[2]; Example 2, period of 7 hours
  tolerability of the procedure: without any untoward effects
[2]; Example 2, within 60 minutes, DNP 2 + 2 mg/kg
  body core temperature: 39.4 °C
[2]; Example 3
  tolerability of the procedure: experienced no problems during the procedure but was noticeably fatigued by hour 3
[2]; Example 3, 6.5 to 7 hours after treatment, with chills and malaise
  oral temperature: 38.7 degrees centigrade
[2]; Example 3, after 1 mg/kg DNP, baseline 3.7
  V02 per kg: 5.3 cc/kg/min
[2]; Example 3, after 1 mg/kg DNP, baseline 220 cc/min
  V02: 250 cc/min
[2]; [3]
  V02: 400 cc/min
  V02 per kg: 8.8 cc 02/kg/min
[2]; [4]
  V02: 600 cc/min
  V02 per kg: 10.8 cc/kg/min
[2]; [5]
  V02: 780-820 cc/min
  core temperature, maximum: 41.4 °C
[2]; Example 4, maintained 2 hours and 30 minutes
  plateau temperature: 41.5 °C
[2]; Example 7, 300 mg capsule of DNP orally, three hours before, immediately prior to emission scan
  VO2 uptake above baseline: 40%
[2]; Example 8, DNP 1 + 2 mg/kg IV
  VO2 above baseline: 50%
[2]; Example 9
  blood pressure and cardiac rates: remained within normal limits
[2]; Example 9, 15 minutes after additional 1 mg/kg DNP
  VO2: 420 cc/minute
[2]; Example 9, 20 minutes after 2 mg/kg DNP IV, baseline 250 cc/minute
  VO2: 340-360 cc/minute
[2]; Example 9, 20 minutes after additional 1 mg/kg DNP at hour 3
  VO2: 450-500 cc/minute
[2]; Example 9, 6 hours
  tolerability of the procedure: without any adverse effects
[2]; Example 9, DNP with methylene blue
  rectal probe temperature increase over baseline, maximum: 1.3 °C
[2]; Example 9, at any time during treatment
  general toxicity: no evidence of general toxicity
[2]; Example 9, declined by hour 3
  VO2: 360-380 cc/minute
[2]; Example 10
  fatigue: notably fatigued at hour 5
  sweating: sweat profusely
[2]; Example 10, 20 minutes after 1 mg/kg DNP, baseline 160 cc/min, interferon-alpha 6 hours before
  VO2: approximately 210 cc/min
[2]; Example 10, 20 minutes after additional 2 mg/kg DNP
  VO2: 420 cc/min
[2]; Example 10, 20 minutes after additional 2.0 mg/kg DNP
  VO2: 360 cc/min
[2]; Example 10, declined two hours after last dose
  VO2: 280 cc/min
[2]; Example 10, no efforts to prevent body heat loss
  rectal temperature above normal baseline: ≤ 1.3 °C
[2]; Example 10, peak 20 minutes after second dose of 1 mg/kg DNP
  VO2: 250 cc/min
